These results are taken from article PMC5770468, “Cardiac glycoside/aglycones inhibit HIV-1 gene expression by a mechanism requiring MEK1/2-ERK1/2 signaling” (Scientific Reports, 2018).

For assay [1], the system named is HIV-1 Gag-GFP expression. Briefly: Recovery of HIV-1 Gag-GFP expression by pathway inhibitors in the presence of CSs, HeLa rtTA-HIV(Gag-GFP) cells. The class given is cell-based. The note with it: 12 μM U0126; 5.5 μM Selumetinib; 10 μM LY294002; 5 µM KB-R7943; CSs at ~IC80. On the procedure:
(§1) Figure 5 Effect of modulating NKA expression, [Ca^2+]i, and PI3K-AKT on HIV-1 gene expression. Depletion of the NKA perturbs HIV-1 RNA processing (n ≥ 3, mean, s.e.m.). HeLa rtTA-HIV(Gag-GFP) cells were transduced with two shRNAs (E6/E10) to knockdown expression of the NKA α1 subunit and their effect on HIV-1 gene expression analyzed. After positive selection of cells with puromycin for 24–48 h, HIV-1 expression was Dox induced for 20 h, and cells harvested for analyses. Total mRNA (and protein) was isolated from cells, reverse transcribed, and analyzed by qRT-PCR and data normalized to β-actin (a,c). Results are shown relative to Stuffer (+). (a) Expression levels of NKA α1 mRNAs assayed by qRT-PCR. (b) HIV-1 Gag expression assayed by p24^CA ELISA of cell lysates (40 μg). (c) Accumulation of HIV-1 US (black), SS (white), and MS (gray) mRNAs quantified by qRT-PCR. (d–g) CSs suppress HIV-1 gene expression independent of intracellular Ca^2+ flux/signaling and PI3K-AKT activation. HeLa rtTA-HIV(Gag-GFP) cells were pre-treated with either a chelator of [Ca^2+]i (5 µM BAPTA-AM, [Ca2+]ii), inhibitors of NCX Ca^2+-entry (5 µM KB-R7943, NCXi) or PI3K (10 μM LY294002, PI3Ki), or untreated (DMSO, no pathway inhibitor) for ~2 h prior to treatment with ~IC80s of CSs or DMSO for 4 h, and Dox induced for ~20 h. The pathway used by a CS to inhibit HIV-1 expression was determined by monitoring for recovery of Gag-GFP expression by measuring GFP fluorescence in cell lysates (and initially by plate scans of live/fixed cells, Supplementary Fig. S7a and S8c). (d) Levels of [Ca^2+]i measured by Fura Red AM™ (n ≥ 4, mean, s.e.m.). (e–f) Quantification of Gag-GFP expression by reducing SDS-PAGE in lysates (35 μg) of cells which were pre-treated with/without KB-R7943 (n ≥ 3–4 mean, s.e.m.). […] (g) Graph quantitating Gag expression by p24^CA ELISA in lysates of cells (35 μg) that were pre-treated with/without LY294002 (n ≥ 3, mean, s.e.m.). Statistical comparisons in (a–g) were performed as illustrated (black/gray dashed lines) or described in Methods.
Figure 6 CSs control HIV-1 gene expression through intracellular signaling. HeLa rtTA-HIV(Gag-GFP) cells were pre-treated with/without pathway inhibitor overnight (~15 h) and treated with ~IC80s of CSs. […] Graphs quantifying the activation level (phospho/total protein) of each MAP/MAPK by western blot. […] The signaling pathway(s) used by a CS to inhibit HIV-1 expression was determined by detecting Gag-GFP fluorescence in cell lysates (~35 μg) by reducing SDS-PAGE after pre-treatment of cells with a MEK1/2 (12 μM U0126, white), p38α/β/β2 (15 μM SB203580/p38i, gray), or JNK1/2/3 (1.25 μM SP600125/JNKi, hatched) inhibitor (n ≥ 5–7, 4–8, and 3–7, resp., mean, s.e.m.). […]

For assay [2], the system named is [Ca^2+]i. Briefly: Intracellular Ca2+ by Fura Red AM in HeLa rtTA-HIV(Gag-GFP) cells. The following applies: 5 µM pre-treatment ~2 h. It is filed as cell-based, human. On the procedure:
as §1, with “(a) Expression levels of NKA α1 mRNAs assayed by qRT-PCR. (b) HIV-1 Gag expression assayed by p24^CA ELISA of cell lysates (40 μg).” left out, “(d–g) CSs suppress HIV-1 gene expression independent of intracellular Ca^2+ flux/signaling and PI3K-AKT activation. HeLa rtTA-HIV(Gag-GFP) cells were pre-treated with either a chelator of [Ca^2+]i (5 µM BAPTA-AM, [Ca2+]ii), inhibitors of NCX Ca^2+-entry (5 µM KB-R7943, NCXi) or PI3K (10 μM LY294002, PI3Ki), or untreated (DMSO, no pathway inhibitor) for ~2 h prior to treatment with ~IC80s of CSs or DMSO for 4 h, and Dox induced for ~20 h.” left out, “Statistical comparisons in (a–g) were performed as illustrated (black/gray dashed lines) or described in Methods.” left out

Take `N=C(N)SCCc1ccc(OCc2ccc([N+](=O)[O-])cc2)cc1` [KB-R7943]: the “reversal of CS inhibition of HIV-1 Gag-GFP expression by pathway inhibitor pre-treatment” value in assay [1] is given as “did not reverse”. In addition, in assay [2], the “effect on CS-triggered rise in [Ca^2+]i” value was “blocked”.
